One assay addresses muscarinic receptors. Nature of the assay: Receptor binding studies (radioligand L(+)cis-[2-methyl-3H]-N,N,N-trimethyl-1,3-dioxolan-4-methanammonium-iodide, NET-647). The conditions noted are these: cerebral cortex (rat); radioligand NET-647; tested as maleate (MA) or oxalate (OX) salt. Here is the method:
The compounds of formulae I and Ia have valuable pharmacological properties. Thus, in bonding studies, they show affinities with muscarinic receptors and muscarbin-agonistic GTP-shifts (GTP=guanosintriphosphate). (Birdshall, N. I. M., E. C. Hulme and J. M. Stockton 1984 in T.I.P.S. Supplement, Proc. Internat. Symposium on Subtypes of Muscarinic Receptors, Ed. Hirschowitz, Hammer, Giacchetti, Keirns, Levine; Elsevier p. 4-8).
The receptor binding studies were carried out according to: A. Closse, H. Bittiger, D. Langenegger and A. Wanner, Naunyn-Schmiedeberg's Arch. Pharmacol. 335, 372-377 (1987).
Receptor binding studies
L(+)cis-[2-methyl-^3 H]-N,N,N-trimethyl-
1,3-dioxolan-4-methanammonium-iodide
NET-647, Messrs. NEN (New England
Organ: Cerebral cortex (rat)

The subject of the next assay is conscious rabbit. In words: arousal reaction in the EEG (electroencephalograph) of a conscious rabbit. Format: in vivo.

As a reminder, the Ki is a measure of affinity in units of concentration, obtained from inhibition or displacement. On to `CCOCC1=CCN(C)CC1` [Example 2, 4-Ethoxymethyl-1-methyl-1,2,3,6-tetrahydropyridine], for which, on muscarinic receptors, the Ki was 210 nM. The “arousal reaction typical of cholinomimetics in the EEG” value with conscious rabbit (1 mg/kg and 3 mg/kg i.v.) is reported as “exhibit an arousal reaction typical of cholinomimetics”.
Consider `CCSCC1=CCN(C)CC1` [Example 4, 4-[(Ethylthio)methyl]-1-methyl-1,2,3,6-tetrahydropyridine], for which the Ki at muscarinic receptors is 8.3 nM.
Still for that read-out and setting: under `CCCOCC1=CCN(C)CC1` [Example 9, 1-Methyl-4-propoxymethyl-1,2,3,6-tetrahydropyridine] stands 140 nM.
As to `CSCC1=CCN(C)CC1` [Example 13, 1-Methyl-4-[(methylthio)methyl]-1,2,3,6-tetrahydropyridine], at muscarinic receptors, the Ki came out at 15 nM. The “arousal reaction typical of cholinomimetics in the EEG” value in the assay with conscious rabbit (0.1 mg/kg and 0.3 mg/kg i.v.) is reported as “exhibit an arousal reaction typical of cholinomimetics”.
For the molecule `COCCC1=CCN(C)CC1` [OX, 4-(methoxyethyl)-1-methyl-1,2,3,6-tetrahydropyridine], the Ki on muscarinic receptors is 3900 nM.

Values taken from patent publication US5422353A, “Tetrahydropyridine derivatives” (Boehringer Ingelheim KG, priority 1988, dated 1995).
